“And” between values parts separate entries of the source, which are not always exact repeats. Equal values may be shown once.
Legend:
[1] = system: Py-3Y1-S2, TE-13, VERO and HepG2 cells; assay: Lactate concentration after 2 to 3 days culture, lactate metabolism, mean over four cell types (Example 9); type: cell-based, rat, human, African green monkey; conditions: drug 0.5 mg/ml, 2 to 3 days (48 to 72 hours) culture, mean of four experiments
Description: After the addition of the drug, the culture solution was diluted so that the weight ratio of the culture solution to distilled water was 1:19, and the lactate concentration of the diluted culture solution was measured. The lactate concentration was measured using a lactate assay kit (product name: Lactate Assay Kit-WST, product of Dojindo Laboratories).
First, samples of 2-amino-1-cyclohexylethanol (2-amino-1-cyclohexyl EOH) and 2-amino-1-phenylethanol (2-amino-1-phenyl EOH) were prepared in the same manner as in Example 1. Four types of cells were used as in Example 8, and each of the cells was cultured under the same conditions as in Example 1. […] Thereafter, the culture time was lengthened to 2 to 3 days (48 to 72 hours) compared to Example 8. As a control 1, the culture was performed in the same manner except that distilled water to which the drug was not added was added to the culture solution instead of the sample. As a control 2, the culture was performed in the same manner as the […] except that a sample of biguanide prepared in the same manner as in Example 1 was added to the culture solution instead of the sample. Then, the lactate concentration in each sample was measured in the same manner as in Example 6. Each of the four cells was used for a total of four experiments.

Male mice of ICR strain = assay: Blood glucose level of mice after oral glucose load with the drug; type: in vivo, mouse; conditions: drug 50 mg/kg + glucose 2000 mg/kg oral
Description: As a drug, 2-amino-1-phenylethanol was used. First, glucose (KANTO CHEMICAL CO., INC.) was dissolved in water for injection so as to achieve a concentration of 200 mg/ml, thereby preparing a glucose solution. Next, the drug was dissolved in the water for injection, and then the glucose solution was added thereto so that the drug and glucose had final concentrations of 2.5 mg/ml and 100 mg/ml, respectively, thereby preparing a sample. As a control of the drug, the culture was performed in the same manner except that 100 mg/ml glucose solution to which the drug was not added was used instead of the sample.
Male mice of 6-week-old ICR strain were purchased from Japan SLC, Inc., and preliminary rearing was carried out for about 1 week to check there was no abnormality in performance status. The conditions for the preliminary rearing were as follows: 4 mice each were housed in a polycarbonate cage, room temperature was 23° C.±3° C., and illumination time was 12 hours/day. Diets (mice and rat chow, product of Nosan Corporation) and drinking water (tap water) were freely ingested.
After the preliminary rearing, the mice were fasted for about 21 hours, and then body weight and blood glucose levels were measured. The mice were divided into the total of two groups, namely, a test group and a control group to ensure that there was no variation in blood glucose levels between the groups. The number of animals in each group was eight.
After the grouping, mice of the test group and the control group were orally administered a single dose of the sample and the control, respectively, using a gastric sonde to a dose volume of 20 ml/kg. That is, the test group mice were administered the drug and glucose at doses of 50 mg/kg and 2000 mg/kg, respectively, and the control group mice were administered glucose at a dose of 2000 mg/kg. With the time of the administration being regarded as 0 minutes, the blood glucose level was measured at 30 minutes, 60 minutes, 90 minutes, and 120 minutes. The blood glucose level was measured by using an ACCU-CHEK Aviva (Roche Diagnostics K.K.), blood was collected by inserting an injection needle into the tip of the tail, and the blood glucose level was measured for the collected blood.
As to the blood glucose levels at 0 minutes, 30 minutes, 60 minutes, 90 minutes and 120 minutes, the test group and the control group were compared by t-test. The significance levels were 5% and 1%.
In addition, the area under the curves (AUCs) were calculated for the measured blood glucose levels. The AUC was calculated by calculating the area surrounded by the measurement curve and a straight line parallel to the time axis and passing through the measured value at the time of administration in the graph with the measured value on the vertical axis and the time on the horizontal axis. Then, the test group and the control group were compared by t-test for AUC in the same manner as the comparison for the blood glucose level.

[2] = system: rat-derived liver cancer cells (Ry121B, subculture line); conditions: drug 1 mg/ml, control = 100
Description: As a control, the culture was performed in the same manner except that distilled water to which the drug was not added was added to the culture solution instead of the sample.

[3] = system: Rat-derived fibroblasts (Py-3Y1-S2, subculture strain); assay: Glucose consumption of rat-derived fibroblasts (relative value, control = 100); type: cell-based
Excerpt: As drugs, 2-amino-1-cyclohexylethanol (Matrix Biochemicals), 2-aminoethanol (Tokyo Chemical Industry Co., Ltd.), 1-amino-2-propanol (Wako Pure Chemical Industries, Ltd.), 2-amino-1-phenylethanol (Tokyo Chemical Industry Co., Ltd.), 1, 3-bis[tris(hydroxymethyl)-methylamino]propane (Tokyo Chemical Industry Co., Ltd.), N-cyclohexylethanolamine (Tokyo Chemical Industry Co., Ltd.), diethanolamine (Wako Pure Chemical Industries, Ltd.), diethylamine (Wako Pure Chemical Industries, Ltd.), dipropylamine (Tokyo Chemical Industry Co., Ltd.), HEPES sodium salt (MP Biomedicals), metoprolol tartrate (Tokyo Chemical Industry Co., Ltd.), morpholine (Wako Pure Chemical Co., Ltd.), octopamine (MP Biomedicals), propylamine (Tokyo Chemical Industry Co., Ltd.), triethylamine (Wako Pure Chemical Co., Ltd.), timolol maleate (Wako Pure Chemical Industries, Ltd.) and tris(hydroxymethyl)aminomethane (Wako Pure Chemical Industries, Ltd.) were used. Each drug was dissolved in distilled water to prepare a sample.
In the culture, DMEM (Nissui Pharmaceutical Co., Ltd.) was used as a culture medium. […] As a control of the drug, the culture was performed in the same manner except that distilled water to which the drug was not added was added to the culture solution instead of the sample.
After the addition of the drug, the glucose concentration of each of the culture solutions was measured immediately after the start of the culture and after the completion of the culture. The glucose concentration was measured using a glucose assay kit (Waco). Then, the glucose concentration after the completion of the culture was divided by the glucose concentration immediately after the start of the culture (5.6 mmol per liter) to calculate the glucose consumption.
The fibroblasts were cultured. […] Streptozotocin, alloxan, and nicotinamide are drugs all known to produce symptoms of diabetes when administered to the body.
Next, samples of streptozotocin, alloxan, and nicotinamide plus 2-amino-1-phenylethanol (2-A-1-P) were prepared in the same manner. The concentration of 2-A-1-P was 1 mg/ml. The relative value of the glucose consumption was calculated in the same manner.
The fibroblasts were cultured.
The concentration of 2-A-1-P was 0.5 mg/ml. The relative value of the glucose consumption was calculated in the same manner.

## NCC(O)c1ccccc1 (centres unmarked) [2-amino-1-phenylethanol]
[1]
  lactate concentration in the culture solution compared to control 1: equivalent to that of control 1
Male mice of ICR strain; individual mice, 0-120 minutes above value at administration
  AUC Calculated value (blood glucose): 173 mg/dL·h and 142 mg/dL·h (2×) and 177 mg/dL·h and 171 mg/dL·h and 132 mg/dL·h and 127 mg/dL·h and 258 mg/dL·h
Male mice of ICR strain; individual mice, 0 minutes (time of administration)
  blood glucose level: 46 mg/dL and 53 mg/dL and 61 mg/dL and 70 mg/dL and 54 mg/dL and 60 mg/dL and 86 mg/dL and 59 mg/dL
Male mice of ICR strain; individual mice, 30 minutes post-administration
  blood glucose level: 177 mg/dL and 194 mg/dL (2×) and 222 mg/dL and 165 mg/dL and 202 mg/dL and 219 mg/dL and 256 mg/dL
Male mice of ICR strain; individual mice, 60 minutes post-administration
  blood glucose level: 151 mg/dL and 136 mg/dL (2×) and 180 mg/dL and 171 mg/dL and 141 mg/dL and 160 mg/dL and 223 mg/dL
Male mice of ICR strain; individual mice, 90 minutes post-administration
  blood glucose level: 121 mg/dL and 93 mg/dL and 138 mg/dL (2×) and 117 mg/dL and 91 mg/dL and 120 mg/dL and 176 mg/dL
Male mice of ICR strain; individual mice, 120 minutes post-administration
  blood glucose level: 116 mg/dL and 91 mg/dL and 112 mg/dL and 113 mg/dL and 108 mg/dL and 79 mg/dL and 111 mg/dL and 134 mg/dL
Male mice of ICR strain; test group No. 1 to No. 8
  AUC Mean value ± Standard error (blood glucose): 165 ± 15 mg·h/dL
[2]
  relative value of glucose consumption: about 140
[3]; Example 2, fibroblasts, drug 0.1 mg/ml, control = 100
  relative value of glucose consumption: about 130
[3]; Example 2, fibroblasts, drug 0.25 mg/ml, control = 100
  relative value of glucose consumption: about 140
[3]; Example 2, fibroblasts, drug 0.5 mg/ml, control = 100
  relative value of glucose consumption: about 160
[3]; Example 3, 2-A-1-P 1 mg/ml in addition to alloxan 1 mg/ml
  relative value of glucose consumption: ≥ 100
[3]; Example 3, 2-A-1-P 1 mg/ml in addition to nicotinamide 1 mg/ml
  relative value of glucose consumption: ≥ 100
[3]; Example 3, 2-A-1-P 1 mg/ml in addition to streptozotocin 1 mg/ml
  relative value of glucose consumption: ≥ 100
[3]; Example 4, 2-A-1-P 0.5 mg/ml in addition to V2O5
  relative value of glucose consumption: about 140
[3]; Example 4, 2-A-1-P 0.5 mg/ml in addition to concanavalin A 100 μg/ml
  relative value of glucose consumption: about 150
[3]; Example 4, 2-A-1-P 0.5 mg/ml in addition to vanadium
  relative value of glucose consumption: about 145
[3]; fibroblasts, drug 0.5 mg/ml, 12 to 24 hours, control = 100 (FIG. 1A, 2A)
  relative value of glucose consumption: significantly increased glucose consumption
[3]; fibroblasts, drug 1 mg/ml, 12 to 24 hours, control = 100 (FIG. 1B, 2B)
  relative value of glucose consumption: significantly increased glucose consumption
